Measured values reported in US6486158B1, “[4,5]-fused-3,6-disubstituted-pyridazines with sulfur-containing substituents in position three for the treatment of neoplasia” (Cell Pathways, Inc., priority 1998, dated 2002).

Experiments:
[1] = target: T1, purified cyclooxygenase Type 1 (COX I) (Ovis aries, UniProt P05979); test: Cyclooxygenase (COX I) inhibition, purified enzyme; assay type: biochemical; settings: 100 μM compound, arachidonic acid 100 μM, 2.0 min at 37° C., COX I from ram seminal vesicles
T1 construct: The COX I was purified from ram seminal vesicles; from tissue; host or cells: ram seminal vesicles
T1 sequence (P05979 25-600): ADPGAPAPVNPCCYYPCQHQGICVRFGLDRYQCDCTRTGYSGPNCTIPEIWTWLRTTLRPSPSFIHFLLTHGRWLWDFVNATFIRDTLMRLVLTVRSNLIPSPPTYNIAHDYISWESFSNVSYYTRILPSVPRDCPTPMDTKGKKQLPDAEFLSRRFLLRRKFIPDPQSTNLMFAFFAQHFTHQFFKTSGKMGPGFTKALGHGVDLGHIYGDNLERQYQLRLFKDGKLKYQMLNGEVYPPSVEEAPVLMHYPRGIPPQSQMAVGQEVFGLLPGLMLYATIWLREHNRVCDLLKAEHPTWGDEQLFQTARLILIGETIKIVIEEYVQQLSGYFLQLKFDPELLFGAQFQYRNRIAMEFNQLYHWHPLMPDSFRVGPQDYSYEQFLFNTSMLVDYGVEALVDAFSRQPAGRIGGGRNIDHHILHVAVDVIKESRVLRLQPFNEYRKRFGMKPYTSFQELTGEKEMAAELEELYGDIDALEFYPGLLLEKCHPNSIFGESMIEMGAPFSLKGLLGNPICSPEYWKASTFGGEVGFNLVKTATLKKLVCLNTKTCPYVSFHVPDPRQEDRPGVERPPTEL
Protocol: COX I catalyzes the formation of prostaglandins and thromboxane by the oxidative metabolism of arachidonic acid. Compounds of this invention, as well as a positive control, (sulindac sulfide) were evaluated to determine whether they inhibited purified cyclooxygenase Type 1 (see Table 3 below).
The COX I was purified from ram seminal vesicles, as described by Boopathy, R. and Balasubramanian, J. 239:371-377, 1988. COX I activity was assayed as described by Evans, A. T. et al., “Actions of Cannabis Constituents on Enzymes Of Arachidonate Metabolism Anti-Inflammatory Potential,” Biochem. Pharmacol., 36:2035-2037, 1987. Purified COX I was incubated with arachidonic acid (100 μM) for 2.0 min at 37° C. in the presence or absence of test compounds. The assay was terminated by the addition of TCA, and COX I activity was determined by absorbance at […].

[2] = tested on: human colon carcinoma cell line, SW-480; test: Sulforhodamine B (SRB) tumor cell growth inhibition assay; assay type: cell-based; settings: SW-480 cells, six days continuous exposure; for inhibition at 100 µM: Homo sapiens, SW480, 144 h
Protocol: The compounds of this invention were assayed for their growth inhibitory activity on the human colon carcinoma cell line, SW-480 obtained from ATCC (Rockville, Md.), to ascertain the degree of growth inhibition (Skehan et al., J. Natl. Cancer Instit. 82:1107-1112, 1990). Growth inhibition of this cell line is indicative of a benefit on precancerous lesions and neoplasms. The cell line and growth assay employed for such experiments are well characterized, and are used to evaluate the anti-neoplastic properties of compounds (Piazza, Cancer Research Vol. 57, pp. 2452-2459, 1997). The assay is used by the United States National Cancer Institute in its screening program for new anti-cancer drugs.
Drug stock solutions were made in 100% DMSO and were then diluted with RPMI media for cell culture testing. All drug solutions were prepared fresh on the day of testing. The cultured cells were obtained at passage #99 and grown in RPMI media supplemented with 5% fetal calf serum, and 2 mM glutamine, […] penicillin, 100 U/ml streptomycin, and 0.25 μg/ml amphotericin. The cultures were maintained in a humidified atmosphere of 95% air and 5% CO2 at 37° C. The cultures were passaged at preconfluent densities using a solution of 0.05% trypsin and 0.53 mM EDTA. Cells were plated at 1000 cells/well for 96 well flat-bottom microtiter plates.
Tumor cell growth inhibition was assessed using the Sulforhodamine B (SRB) protein binding assay. In this assay, tumor cells were plated in 96-well plates and treated with drug-containing media for six days (continuous exposure). For each plate, 6 wells were designated as no treatment controls, six wells as vehicle (0.1% DMSO) controls, and the remaining wells for drug dilutions with three wells per drug concentration. At the end of the exposure period, the cells were fixed and stained with sulforhodamine B, a protein binding dye. The dye was then solubilized, and the optical density of the resulting solution was determined on a 96-well plate reader. The mean optical density of the treated wells was then divided by the mean optical density in the control wells (6 wells of each) to determine the effect of the drug on the cells. Dye intensity is proportional to the number of cells or amount of protein per well. The resultant “percent inhibition” values, which then represents the degree of growth inhibition, for the indicated compounds from the Examples are tabulated in Table 1.
For one compound of this invention, an IC50 value was determined. An IC50 value is equivalent to the concentration of compound needed to inhibit tumor cell growth by 50%. The IC50 value was obtained graphically by plotting and connecting the mean growth inhibition values for each drug concentration tested. The experiment included three wells per drug concentration. Concentration was plotted on a log scale on the X-axis.

Compound	inhibition at 100 µM [1] [%]	inhibition at 100 µM [2] [%]	melting point [°C]	COX I % Inhibition (100 μM) [1] [%]	% Growth Inhibition at 100 μM [2] [%]
c1ccc(CSc2nnc(-c3ccccc3)c3ccccc23)cc1 [Example 1, 1-Benzylthio-4-Phenylphthalazine]	30	85	92	–	–
C=CCSc1nnc(-c2ccccc2)c2ccccc12 [Example 2, 1-(2-Propenylthio)-4-Phenylphthalazine]	62	87	83	–	–
CSc1nnc(-c2ccccc2)c2ccccc12 [Example 3, 1-Methylthio-4-Phenylphthalazine]	73	< 50	147	–	–
Clc1cccc(CSc2nnc(-c3ccccc3)c3ccccc23)c1 [Example 4, 1-(3-Chlorobenzylthio)-4-Phenylphthalazine]	< 25	81	85	–	–
Fc1ccc(CSc2nnc(-c3ccccc3)c3ccccc23)cc1 [Example 11, 1-(4-Fluorobenzylthio)-4-Phenylphthalazine]	< 25	76	104	–	–
O=S(=O)(Cc1ccccc1)c1nnc(-c2ccccc2)c2ccccc12 [Example 18, 1-(Benzylsulfonyl)-4-Phenylphthalazine]	81	–	–	–	–
COC(=O)Cc1nnc(Sc2ccccc2)c2ccccc12 [Example 19, Methyl-2-(4-Phenylthiophthalazinyl)acetate]	–	–	–	<25	61
c1ccc(-c2nnc(SCc3ccc4ccccc4c3)c3ccccc23)cc1 [Example 20, 1-(2′-Naphthylmethylthio)-4-Phenylphthalazine]	–	–	–	<25	<50
CC(C)(C)OC(=O)CSc1nnc(-c2ccccc2)c2ccccc12 [Example 21, 1-(t-Butyl 2′Mercaptoacetate)-4-Phenylphthalazine]	–	–	–	–	51
Clc1cccc(CSc2nnc(-c3ccccn3)c3ccccc23)c1 [Example 22, 1-(3-Chlorobenzylthio)-4-(2-Pyridyl)-Phthalazine]	< 25	88	–	–	–
CCSc1nnc(-c2ccccc2)c2ccccc12 [Example 35, 1-Ethylthio-4-Phenylphthalazine]	–	–	93	–	–
CSc1ccc(/C=C2/C(C)=C(CC(=O)O)c3cc(F)ccc32)cc1 [Sulindac sulfide, sulindac sulfide, reference compound]	97	–	–	–	–
